Source: patent publication US20220064214A1, “NOVEL PEPTIDES AND USES THEREOF” (CENNA BIOSCIENCES INC., priority 2019, published 2022)
Values joined by “and” are separate entries in the source; they are usually repeats but may differ in a detail not shown here. Equal entries are not always repeated. Marks after values point to notes of the source that are not given here. Ends that are not written are not given here.

Assays:
Aβ40 = test: Efficacy in reducing Aβ40 in rat plasma (ELISA); format: in vivo; conditions: 10 mg/kg SC; for reduction in Aβ40: rat plasma; for Percent Decrease in Aβ 40 in Rat Plasma: mean of 3 rats, negative = decrease
Experimental: (§1) Blood was collected through jugular vein cannulas, and the samples were collected into tubes with K2EDTA. After centrifuging at a temperature of 2 to 8° C. at 4,000×g for 5 minutes, the resulting plasma was split into equal aliquots, frozen, and stored at −60 to −80° C. One aliquot was for PK analysis and the other was for Aβ analysis (see Example 4).
Rats (n=3 per peptide) were administered with P8, 8M1D, or 8M2D (10 mg/kg) subcutaneously, and plasma were collected at 0, 6, 12, and 24 h after dosing and Aβ40 analysis was carried out by ELISA (Invitrogen).

[1] = Metabolic stability of peptides in fresh human plasma (LC/MS/MS); format: in vitro ADME
Experimental: P8, 8M1, and 8M1D were generated according to Example 1 with purities ranging from 98.0% to 99.0%. A primary 1.00 mM stock solution was prepared in either acetonitrile or acetonitrile:water (1:1, v/v) for each peptide. A 0.200 mM working stock was made from the primary stock in acetonitrile:water (1:1, v/v), which was used for the reactions. The primary and working stock solutions were stored at −20° C. when not in use, and they were kept at room temperature for as short a time as possible when in use. Fresh human plasma were maintained by adding sodium heparin as an anticoagulant.
The incubation procedures started when 5.00 μL of 0.2 mM (working stock solutions) of different peptides were added to 0.995 mL of fresh human plasma in a 1.7-mL snap tube. After 3, 8 and 24 hours of incubation, duplicate 50.0 μL aliquots of plasma were removed and placed into extraction tubes containing 150 μL of methanol, which served to quench any reactions, and thus incubations were ended. For each time point, the aliquotes were immediately extracted by vortex mixing and centrifugation. Resulting supernates were stored in High-Performance Liquid Chromatography (HPLC) vials and analyzed by LC/MS/MS after all samples were extracted. Valacyclovir was used as a positive control.
LC/MS/MS analysis of the incubation solutions was conducted by initial separation of the test article peaks using chromatography prior to detection by the mass spectrometer. The LC/MS system was comprised of a HPLC coupled with a TQS-Micro or Quattro Premier (Waters, Milford, Mass.). The mobile phase was nebulized using heated nitrogen in a Z spray source/interface set to electrospray in positive ionization mode for the peptides. The ionized peptides were detected using Tandem Quadropole Mass Spectrometry (MS/MS). The data was acquired using MassLynx (Waters, Milford, Mass.).
HPLC for the peptides and Valacyclovir control were performed with no guard columns, with a flow rate at 0.3 mL/min, with column temperature at 40° C., and autosampler temperature at 10° C. The column for peptides was MacMod ACE 2 Excel C18PFP, 100×2.1-mm, 2.0 μm, and the column for the control was Waters Atlantis T3, 150×2.1-mm, 5.0 μm. The injection loop and volumn for peptides were 50.0 μL and 20.0 μL respectively, and the ones for controls were 20.0 μL and 2.00 μL. For the Mass Spectrometer for the peptides and the Valacyclovir control, the source temperature was set to be 150° C., desolvation temperature was set to be 350° C., and polarity was set to be positive mode of electrospray ionization. Other parameters in HPLC and Mass Spectrometer are shown in Table 2.1, Table 2.2 and Table 3 below.

[2] = Pharmacokinetics study in rats, CSF; format: in vivo; design: CSF concentration, Mean IV / CSF concentration, Mean SC: unit not given here; conditions: rat; for CSF concentration, Mean IV: 10 mg/kg IV; for CSF concentration, Mean SC: 10 mg/kg SC
Experimental: (§2) An in-vivo study was carried out in rats to determine the pharmacokinetics (PK) of peptides P8, 8M1D and 8M2D in plasma and CSF. Each peptide was assessed through two dosage routes, intravenous (IV) and subcutaneous (SC). Three rats were assigned to each dose group with each peptide. Total of twelve rats per peptide were used.
CSF collection was performed by first anesthetizing animals at specified time points (see Table 5) with a mixture of 80 mg/kg ketamine and 8 mg/kg xylazine. The depth of anesthesia was monitored by toe pinches. CSF was collected via the cisterna magna (˜0.05 mL), and it was split into equal aliquots, frozen, and stored at −60 to −80° C.

[3] = Delivery to brain in transgenic mice (brain concentrations); format: in vivo; conditions: SC administration
Experimental: Critical to the development of any therapeutic for diseases like AD is the requirement that it can be delivered to the brain. Delivery to brain and efficacy of P8 and 8M2D in reducing Aß was analyzed in the transgenic mice described in Section 6.3 above. […]

Aβ = test: Reduction of Aβ in retinal cells differentiated from iPSC derived from Alzheimer's disease patients; format: cell-based
Excerpt: The accumulation of Aβ in the retina was studied in this example. Retinal cells were differentiated from induced pluripotent stem (iPSC) cells derived from Alzheimer's disease patients.

[4] = Pharmacokinetics study in rats, plasma; format: in vivo; conditions: rat; for plasma concentration: individual rats
Experimental: as §2, §1

## DEEEDEEL-OH [P8, DEEEDEEL, reference compound]
Aβ40; 12 hr post dosing
  reduction in Aβ40: about 22%
Aβ40; 24 h post dosing
  reduction in Aβ40: about 13%
Aβ40; 0 h
  Percent Decrease in Aβ 40 in Rat Plasma: 0.00%
Aβ40; 6 h
  Percent Decrease in Aβ 40 in Rat Plasma: −18.13%
Aβ40; 12 h
  Percent Decrease in Aβ 40 in Rat Plasma: −22.70%
Aβ40; 24 h
  Percent Decrease in Aβ 40 in Rat Plasma: −13.22%
[1]
  stability in fresh human plasma (in words): relatively stable
[1]; fresh human plasma, 0 h incubation
  % Remaining: 100%
[1]; fresh human plasma, 3 h incubation
  remaining at 3 h, 1 µM: 115%
[1]; fresh human plasma, 8 h incubation
  remaining at 8 h, 1 µM: 99.7%
[1]; fresh human plasma, 24 h incubation
  remaining at 24 h, 1 µM: 72%
[2]; 10 mg/kg IV and SC
  time after dosing at which detectable in CSF: ≤ 2 h
[2]; 0 hr
  CSF concentration, Mean IV: 0
  CSF concentration, Mean SC: 0
[2]; 0.5 hr
  CSF concentration, Mean IV: 42.4
  CSF concentration, Mean SC: 79.4
[2]; 1 hr
  CSF concentration, Mean IV: 14.2
  CSF concentration, Mean SC: 19.3
[2]; 2 hr
  CSF concentration, Mean IV: 4.89
  CSF concentration, Mean SC: 23.3
[2]; 4 hr
  CSF concentration, Mean IV: 0
  CSF concentration, Mean SC: 0
[2]; 8 hr
  CSF concentration, Mean IV: 0
  CSF concentration, Mean SC: 0
[2]; 12 hr
  CSF concentration, Mean IV: 0
  CSF concentration, Mean SC: 0
[2]; 24 hr
  CSF concentration, Mean IV: 0
  CSF concentration, Mean SC: 0
[3]
  delivery to the APPTg mouse brain (in words): in sufficient amounts to reduce Aß in the brain
Aβ
  production of Aβ in retinal cells in the presence of the peptide (in words): reduced
[4]; 10 mg/kg IV and SC
  time after dosing at which detectable in plasma: ≤ 2 h
[4]; 10 mg/kg IV, 0 hr (pre-dose)
  plasma concentration: BQL
[4]; 10 mg/kg IV, 0.167 hr, 10 mg/kg
  plasma concentration: 9,770 and 12,800 ^a and 11,800 ^a
[4]; 10 mg/kg IV, 0.5 hr, 10 mg/kg, in ng/mL (unit assumed)
  plasma concentration: 2,340 and 2,080 and 2,710
[4]; 10 mg/kg IV, 1 hr, 10 mg/kg, in ng/mL (unit assumed)
  plasma concentration: 257 and 219 and 189
[4]; 10 mg/kg IV, 2 hr, 10 mg/kg, in ng/mL (unit assumed)
  plasma concentration: 26.3 and 22.7 and 18.9
[4]; 10 mg/kg IV, 4 hr, 10 mg/kg
  plasma concentration: 3.23 ^b and 3.18 ^b and 2.89 ^b
[4]; 10 mg/kg IV, 6 hr, 10 mg/kg
  plasma concentration: 1.07 ^b and 0.794 ^b
[4]; 10 mg/kg IV, 8 hr
  plasma concentration: BQL
[4]; 10 mg/kg IV, 12 hr
  plasma concentration: BQL
[4]; 10 mg/kg IV, 24 hr
  plasma concentration: BQL
[4]; 10 mg/kg SC, 0 hr (pre-dose)
  plasma concentration: BQL
[4]; 10 mg/kg SC, 0.167 hr, 10 mg/kg
  plasma concentration: 5,610 and 14,400 ^a and 11,900 ^a
[4]; 10 mg/kg SC, 0.5 hr, 10 mg/kg, in ng/mL (unit assumed)
  plasma concentration: 3,030 and 7,010 and 7,250
[4]; 10 mg/kg SC, 1 hr, 10 mg/kg, in ng/mL (unit assumed)
  plasma concentration: 670 and 1,300 and 1,970
[4]; 10 mg/kg SC, 2 hr, 10 mg/kg, in ng/mL (unit assumed)
  plasma concentration: 105 and 191 and 245
[4]; 10 mg/kg SC, 4 hr, 10 mg/kg
  plasma concentration: 5.44 ^b and 9.41 ^b and 20.7
[4]; 10 mg/kg SC, 6 hr, 10 mg/kg
  plasma concentration: 1.18 ^b and 4.35 ^b and 9.33 ^b
[4]; 10 mg/kg SC, 8 hr, 10 mg/kg
  plasma concentration: BQL and 1.32 ^b and 1.51 ^b
[4]; 10 mg/kg SC, 12 hr, 10 mg/kg
  plasma concentration: BQL (2×) and 0.900 ^b
[4]; 10 mg/kg SC, 24 hr
  plasma concentration: BQL
